We go through three molecules from US20240255521A1, “Cilia Protein as Biomarkers and Methods of Use” (The Medical College of Wisconsin, Inc., priority 2021, published 2024).

One assay has as its system HBMVECs. Kind of assay: PMA-induced oxidative stress in HBMVECs with or without NOX inhibitor; ROS, HO-1 and cilia proteins by flow cytometry (MFI). It is filed as cell-based, human. On the procedure:
Primary HBMVECs (Cell Systems Corporation catalog ACBRI 376) and HUVECs (Glyco Tech) were maintained at 37° C. in a 5% CO2 incubator in endothelial cell complete medium (Promocell, catalog C22010). As per vendor's description, cells were isolated from the cortex region of the brain from a pediatric donor. The cells were isolated without using antibody labeling to preserve the cells' natural properties for enhanced biological relevance. LL-CPK1 (CL101.1TM) porcine renal epithelial cells from proximal tubule were obtained from ATCC. All cell culture wells were seeded equally, and wells were randomized to control versus experimental conditions with duplicates or triplicates per condition. All experiments were performed between passages 4 and 6. Cells that had reached approximately 90% confluence were used in the shear stress experiment. For ROS quantification experiments, cells were treated with PMA (Sigma, catalog P8139-5MG) at a concentration of 50 ng/mL for 1 hour. To inhibit ROS production in respective experimental groups, cells were treated with 20 μM NOX inhibitor VAS 2870 (Sigma, catalog SML0273-5MG) 1 hour prior to PMA treatment.
Single-cell suspensions were washed 3 times with FACS buffer (1×PBS with 5% FBS and 0.1% NaN3) at 300 g for 5 minutes and were subsequently incubated with Live/Dead fixable yellow dead cell stain as per manufacturer's protocol, to exclude any dead cells, wherever applicable. Then, cells were fixed and permeabilized using Cytofix/Cytoperm buffer (BD, catalog 554722) or transcription factor buffer set (BD, catalog 562574) and stained for the following proteins: ARL13b, IFT88, Inversin, Dynein, γ-tubulin, Alk1, KLF4, HO-1, NRF2, and bACTIN. Suitable secondary reagents were used to detect the respective proteins. Primary antibodies were diluted 1:50, and secondary antibodies were diluted 1:500. BD perm wash buffer (catalog 554723) was used for antibody dilutions and washing. Primary antibodies were incubated for 45 minutes and secondaries for 30 minutes at 4° C. Suitable secondary antibody controls were included. To quantify total ROS, assay kit was used as per the manufacturer's instruction (Thermo Fisher Scientific, catalog 88-5930-74). After the completion of staining, cells were resuspended in FACS buffer. Stained cells were run on a flow cytometer (BD LSRFortessa). Sample acquisition was done using FACSDiva software (BD) with subsequent analysis on FlowJo software. To determine the presence of the ciliary protein ARL13b on human RBCs, unlabeled RBCs prior to infusion into the variable height flow chamber, and effluent containing RBCs collected postflow and RBCs postinteraction with brain ECs, were labeled with FITC-conjugated Arl13b antibody for 30 minutes on ice. RBCs were then washed and tested by flow cytometric analysis as previously described (49). To determine whether ROS generation in brain ECs can be increased by sickle RBCs and contributes to deciliation, slides coated with brain ECs were sham-treated or pretreated with the NOX inhibitor apocynin at 10 μM for 1 hour at 37° C., washed, and fitted into the flow chamber. Treated brain ECs were then exposed to unlabeled sickle RBCs for 10 minutes. Sickle RBCs were lysed with RBC lysis buffer and brain ECs scraped from the glass slide for testing for ROS levels using CM-H2-DCFDA (Invitrogen) as described previously in detail (50). One hundred thousand events per sample were acquired and tested by flow cytometric analysis. In separate experiments, and as described above, unlabeled sickle RBCs were tested by flow cytometry for ARL13b ciliary protein binding prior to infusion into the chamber (baseline levels) and postflow and once sickle RBCs interacted with brain ECs treated with 10 μM apocynin.

The test system of assay [1] is Human brain microvascular ECs. Kind of assay: ROS generation in brain ECs exposed to sickle RBCs (CM-H2-DCFDA, flow cytometry). It counts as cell-based. The conditions noted are these: brain ECs pretreated with apocynin 10 μM for 1 hour, then exposed to SS RBCs for 10 minutes; P<0.0001. On the procedure:
Single-cell suspensions were washed 3 times with FACS buffer (1×PBS with 5% FBS and 0.1% NaN3) at 300 g for 5 minutes and were subsequently incubated with Live/Dead fixable yellow dead cell stain as per manufacturer's protocol, to exclude any dead cells, wherever applicable. Then, cells were fixed and permeabilized using Cytofix/Cytoperm buffer (BD, catalog 554722) or transcription factor buffer set (BD, catalog 562574) and stained for the following proteins: ARL13b, IFT88, Inversin, Dynein, γ-tubulin, Alk1, KLF4, HO-1, NRF2, and bACTIN. Suitable secondary reagents were used to detect the respective proteins. Primary antibodies were diluted 1:50, and secondary antibodies were diluted 1:500. BD perm wash buffer (catalog 554723) was used for antibody dilutions and washing. Primary antibodies were incubated for 45 minutes and secondaries for 30 minutes at 4° C. Suitable secondary antibody controls were included. To quantify total ROS, assay kit was used as per the manufacturer's instruction (Thermo Fisher Scientific, catalog 88-5930-74). After the completion of staining, cells were resuspended in FACS buffer. Stained cells were run on a flow cytometer (BD LSRFortessa). Sample acquisition was done using FACSDiva software (BD) with subsequent analysis on FlowJo software. […]

In a further assay the test system is ARL13b on SS RBCs. Kind of assay: ARL13b bound to SS RBCs before and after flow chamber interaction with apocynin-pretreated brain ECs (flow cytometry). The conditions noted are these: ECs treated with 10 μM apocynin. It is filed as cell-based, human. On the procedure: HBMVECs were cultured until they reached confluence on clear glass slides precoated with 2% gelatin. Slides coated with brain ECs were washed, then fit into a variable height flow chamber and tested for their ability to support adhesion of RBCs. The flow chamber was mounted on the stage of an inverted phase contrast microscope (Diaphot, Nikon Inc.) connected to a thermoplate (Tokai Hit Co., Ltd.) set at 37° C. Fluorescence-labeled RBCs suspended at 0.2% (v/v) in PBS with Ca^2+ and Mg^2+ were infused into the flow chamber and allowed to adhere to brain ECs for 10 minutes without flow. Before exposure to flow, a minimum of 3 fields at each of 7 different locations along a line oriented to future flow were examined, and the total number of fluorescent cells was counted. Fluid flow (PBS with Ca^2+ and Mg^2+) with a calibrated syringe pump was then started for a period of 15 minutes. Effluent was collected and tested by flow cytometry for cilia shedding from brain ECs by RBC contact. After exposure to flow, the fields were examined, and the number of fluorescent adherent RBCs to brain ECs was counted. The fraction of adherent cells was presented as number of cells attached per field after exposure to flow/total number of cells present per field before flow. […] To quantify total ROS, assay kit was used as per the manufacturer's instruction (Thermo Fisher Scientific, catalog 88-5930-74). […]
A general note: Flow cytometry measures light scatter and fluorescence of single cells or particles in a stream.

[2] abbreviates: PMA 50 ng/mL for 1 hour vs untreated.
Where [3] appears, read: 20 μM VAS2870 1 hour prior to PMA 50 ng/mL.

Entries after “also recorded” stand apart in the source; their conditions may differ.

With `CCCCCCCCCCCCCC(=O)O[C@@H]1[C@@H](C)[C@@]2(O)[C@@H](C=C(CO)C[C@]3(O)C(=O)C(C)=C[C@@H]23)[C@@H]2C(C)(C)[C@]12OC(C)=O` [PMA], in the assay on HBMVECs (setting [2]), the HO-1 levels result is “lower”; the “cilia-associated proteins NRF2, IFT88 and γ-tubulin levels” value is given as “downregulated; also recorded: reduced; also recorded: decreased”; the “total ROS” value is “induced ROS; also recorded: enhanced total ROS”.
Regarding `c1ccc(Cn2nnc3c(Sc4nc5ccccc5o4)ncnc32)cc1` [VAS2870], in the assay on HBMVECs (setting [3]), the HO-1 levels result is on record as “restored to control levels”; the “cilia-associated proteins NRF2, IFT88 and γ-tubulin levels” value is on record as “rescued; also recorded: restored to baseline; also recorded: returned to baseline”. Further, in the assay on HBMVECs (20 μM VAS2870 1 hour prior to PMA 50 ng/mL, vs PMA alone), the “total ROS” value is reported as “partially attenuated; also recorded: quenched ROS production”.
`COc1cc(C(C)=O)ccc1O` [apocynin]: in assay [1], the “ROS generation in ECs” value was “reduced ROS generation in ECs to baseline levels”. Moreover, the “cilia protein expression on sickle RBCs exposed to apocynin-treated brain ECs (in words)” value with ARL13b on SS RBCs is given as “decreased cilia protein expression”. The “ARL13b expression on SS RBCs after exposure to apocynin-treated brain ECs” value in the assay with ARL13b on SS RBCs (before exposure SS RBCs showed approximately 35% ARL13b, P<0.05, n=6) is “approximately 20%”.
